According to patent publication US7928129B1, “Nanomolar β-lactamase inhibitors” (Northwestern University, priority 2002, dated 2011):
Where two headings read alike, the source gives them in different places.

How the values were obtained:
[1] = molecular target: T1, AmpC β-lactamase (Escherichia coli, UniProt P00811); experiment: biochemical; settings: for fold more potent than the lead compound lacking the m.carboxyphenyl side chain: 15 versus 1, 16 versus 4
T1 construct: made in house
Experimental: Enzymology. The phenylglycylboronic acids of the preceding examples were dissolved in DMSO at a concentration of 50 mM; more dilute stocks (10 mM to 1 μM) were subsequently prepared as necessary. Kinetic measurements were performed using nitrocefin as substrate in 50 mM Tris buffer, pH 7.0 and monitored in an HP8453 UV/Vis spectrophotometer. The concentration of AmpC was determined spectrophotometrically in stock solutions made from lyophilized powder; this enzyme had been previously expressed and purified. Usher, K. C., Blaszczak, L. C., Weston, G. S., Shoichet, B. K. and Remington, S. J. Biochemistry 1998, 37, 16082-16092. […] To determine K, values, inhibitor and enzyme were incubated together at their final concentration in the cuvettes for five minutes before the reaction was initiated by the addition of 200 μM substrate. […] Waley, S. G. Biochem. J. 1982, 205 631-633. […] In all reactions, rates were measured after reactions had overcome their initial lag phase and had reached a steady state.
(§1) Mutant Enzymology. The glycylboronic acids were dissolved in DMSO at a concentration of 50 mM; more dilute stocks were subsequently prepared as necessary. Kinetic measurements were performed using nitrocefin as a substrate in 50 mM Tris buffer, pH 7.0, and monitored at 480 nm in an HP9453 UV-vis spectrophotometer. To prevent overestimation of inhibition due to sequestration of the enzyme on the walls of the cuvette during the reaction, 0.1% BSA was added to the buffer in all reactions. […] To determine Ki values, inhibitor and enzyme were incubated together in the cuvettes for 5 min before reaction was initiated by the addition of substrate. 200 μM nitrocefin was used for the reactions with L119A and L293A, whereas 400 μM nitrocefin was used for the reactions with N289A to shorten the lag phase of the reaction. For the reactions with N289A, rates were calculated from the later portions of the curve, once the reactions had achieved steady state. These rates were compared with portions of the uninhibited curves that corresponded to the same range of substrate concentrations.

[2] = molecular target: elastase (porcine pancreatic) (Sus scrofa, UniProt P00772); experiment: biochemical; settings: for selectivity for AmpC over elastase: ratio of IC50 values
elastase (porcine pancreatic), sequence (P00772 27-266): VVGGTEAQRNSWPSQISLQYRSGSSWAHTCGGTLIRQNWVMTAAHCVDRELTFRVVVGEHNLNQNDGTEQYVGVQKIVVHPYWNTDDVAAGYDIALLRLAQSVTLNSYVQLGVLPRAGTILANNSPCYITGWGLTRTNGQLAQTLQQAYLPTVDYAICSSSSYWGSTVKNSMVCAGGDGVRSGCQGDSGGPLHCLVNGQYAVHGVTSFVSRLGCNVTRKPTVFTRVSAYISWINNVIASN
Experimental: (§2) Selectivity. The selectivity of compounds 16 and 21 was tested by determining their activity against the serine proteases α-chymotrypsin (bovine pancreatic), β-trypsin (bovine pancreatic), and elastase (porcine pancreatic), all from Sigma (St. Louis, Mo.). The substrates for α-chymotrypsin (succinyl-ala-ala-pro-phe-p-nitroanilide) and β-trypsin (N-benzoyl-L-arginine ethyl ester) were also purchased from Sigma. The elastase substrate (MeOSuc-Ala-Ala-Pro-Val-pNA) was purchased from Calbiochem (San Diego, Calif.). Substrates were diluted from 20 mM DMSO stock solutions, and all reactions were performed in 50 mM Tris buffer, pH 7.0, 25° C. For α-chymotrypsin, 0.001 mg/ml of enzyme and the inhibitor at its final concentration were incubated in the cuvette for five minutes before the reaction was initiated by the addition of 200 μM of substrate. The reaction was monitored at 410 nm. For β-trypsin, 0.004 mg/ml of enzyme and the inhibitor at its final concentration were incubated in the cuvette for five minutes before the reaction was initiated by the addition of 200 μM of substrate. The reaction was monitored at 253 nm. For elastase, 0.006 mg/ml of enzyme and the inhibitor at its final concentration were incubated in the cuvette for five minutes before the reaction was initiated by the addition of 640 μM of substrate. The reaction was monitored at 385 nm. Initial rate fits to the absorbance data for the first 100 seconds were used to determine reaction velocities.

[3] = molecular target: α-chymotrypsin (bovine pancreatic) (Bos taurus, UniProt P00766); experiment: biochemical; settings: for selectivity for AmpC over α-chymotrypsin: ratio of IC50 values
Experimental: as §2

[4] = molecular target: β-trypsin (bovine pancreatic) (Bos taurus, UniProt P00760); experiment: Selectivity: serine protease β-trypsin; assay type: biochemical; settings: 50 mM Tris pH 7.0, 25° C.
β-trypsin (bovine pancreatic), sequence (P00760 24-246): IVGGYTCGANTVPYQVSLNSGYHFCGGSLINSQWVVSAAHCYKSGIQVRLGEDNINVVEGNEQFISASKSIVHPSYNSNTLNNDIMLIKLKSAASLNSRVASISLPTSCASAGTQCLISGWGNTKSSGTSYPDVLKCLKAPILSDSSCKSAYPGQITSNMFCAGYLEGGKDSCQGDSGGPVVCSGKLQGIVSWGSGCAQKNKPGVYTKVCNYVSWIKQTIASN
From the text: Selectivity. […] The reaction was monitored at 410 nm. […] The reaction was monitored at 253 nm. […] The reaction was monitored at 385 nm.

[5] = tested on: eight clinically isolated bacterial pathogens producing class C β-lactamases; assay type: cell-based; settings: against all strains
Experimental: Microbiology. Compounds 16 and 21 were tested for synergy with the β-lactam ceftazidime against pathogenic bacteria from clinical isolates at the Hospital Ramón y Cajal; these bacteria were resistant to β-lactams due to expression of a class C β-lactamase. […] Minimum inhibitor concentration (MIC) values were determined with Mueller-Hinton Broth II using the microdilution method according to NCCLS guidelines. National Committee for Clinical Laboratory Standards, Methods for dilution antimicrobial susceptibility test for bacteria that grow aerobically. Approved Standard M7-A4, 1997, vol. 17, National Committee for Clinical Laboratory Standards, Villanova, Pa.

[6] = molecular target: T2, AmpC N289A (Escherichia coli, UniProt P00811, N305A); experiment: biochemical; assay type: biochemical
T2 construct: made in house
T2 sequence (P00811 20-377 N305A): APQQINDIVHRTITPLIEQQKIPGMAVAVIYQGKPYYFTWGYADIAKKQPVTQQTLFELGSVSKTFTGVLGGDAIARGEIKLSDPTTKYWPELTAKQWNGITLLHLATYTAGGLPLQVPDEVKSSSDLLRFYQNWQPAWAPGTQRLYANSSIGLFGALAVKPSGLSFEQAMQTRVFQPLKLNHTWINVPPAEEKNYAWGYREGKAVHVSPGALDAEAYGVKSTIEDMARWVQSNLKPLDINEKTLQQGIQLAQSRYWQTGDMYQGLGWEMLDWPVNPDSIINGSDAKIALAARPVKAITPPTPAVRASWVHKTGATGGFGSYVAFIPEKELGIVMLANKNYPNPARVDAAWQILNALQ
Experimental: (§3) Enzyme mutagenesis and preparation. Mutants of AmpC were created using the overlap extension polymerase chain reaction (23). Mutant enzymes were expressed as described. AmpC N289A and L293A were purified on an m-aminophenylboronic acid affinity column. AmpC L119A was purified on an S-Sepharose ion-exchange column. The purified enzymes were concentrated using Centricon spin concentrators.
as §1

[7] = molecular target: T1, AmpC β-lactamase; settings: glycylboronic acid previously found, no buffer footnote; cited from earlier work
[8] = molecular target: T3, AmpC L119A (Escherichia coli, UniProt P00811, L135A); experiment: biochemical; assay type: biochemical
T3 construct: made in house
T3 sequence (P00811 20-377 L135A): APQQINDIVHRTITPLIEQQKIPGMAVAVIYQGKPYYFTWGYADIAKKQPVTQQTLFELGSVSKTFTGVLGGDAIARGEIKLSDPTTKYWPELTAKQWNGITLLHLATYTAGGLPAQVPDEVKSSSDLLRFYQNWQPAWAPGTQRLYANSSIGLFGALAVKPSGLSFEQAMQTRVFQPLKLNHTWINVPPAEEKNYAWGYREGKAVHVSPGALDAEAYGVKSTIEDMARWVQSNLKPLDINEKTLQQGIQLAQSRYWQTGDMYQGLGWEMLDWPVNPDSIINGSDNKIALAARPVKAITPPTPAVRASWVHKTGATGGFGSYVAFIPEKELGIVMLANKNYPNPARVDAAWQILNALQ
Experimental: as §3, §1

[9] = molecular target: T4, AmpC L293A (Escherichia coli, UniProt P00811, L309A); experiment: biochemical; assay type: biochemical
T4 construct: made in house
T4 sequence (P00811 20-377 L309A): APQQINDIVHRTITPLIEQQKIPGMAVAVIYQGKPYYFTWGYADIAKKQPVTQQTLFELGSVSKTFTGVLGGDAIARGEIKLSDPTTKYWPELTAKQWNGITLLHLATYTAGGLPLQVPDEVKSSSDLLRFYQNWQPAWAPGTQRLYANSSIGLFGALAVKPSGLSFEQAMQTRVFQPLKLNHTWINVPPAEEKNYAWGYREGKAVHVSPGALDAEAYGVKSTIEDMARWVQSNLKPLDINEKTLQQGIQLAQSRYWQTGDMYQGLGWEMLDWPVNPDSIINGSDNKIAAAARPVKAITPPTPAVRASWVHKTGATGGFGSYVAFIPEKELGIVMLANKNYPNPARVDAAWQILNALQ
Experimental: as §3, §1

[10] = tested on: Escherichia coli 72929 Hip; experiment: MIC, synergy with ceftazidime, microdilution; assay type: cell-based; settings: E. coli 1, ceftazidime to inhibitor 1:1 in combinations
Experimental: (§4) Microbiology. Compounds 16 and 21 were tested for synergy with the β-lactam ceftazidime against pathogenic bacteria from clinical isolates at the Hospital Ramón y Cajal; these bacteria were resistant to β-lactams due to expression of a class C β-lactamase. Strains of bacteria tested were: Citrobacter freundii mut756-CAZ, Escherichia coli 72929 Hip, E. coli 4774 Hip (Table 4, E. coli 1 and 2, respectively), Enterobacter cloacae 72527 ED, E. cloacae 8411 CAZ-R clon7, E. cloacae 12991 ED (Table 4, E. cloacae 1, 2, and 3, respectively), Pseudomonas aeruginosa 279/88, and P. aeruginosa JMSMA7 (Table 4, P. aeruginosa 1 and 2, respectively). Minimum inhibitor concentration (MIC) values were determined with Mueller-Hinton Broth II using the microdilution method according to NCCLS guidelines. National Committee for Clinical Laboratory Standards, Methods for dilution antimicrobial susceptibility test for bacteria that grow aerobically. Approved Standard M7-A4, 1997, vol. 17, National Committee for Clinical Laboratory Standards, Villanova, Pa.

[11] = tested on: P. aeruginosa JMSMA7; experiment: MIC, synergy with ceftazidime, microdilution; assay type: cell-based; settings: Pseudomonas aeruginosa, P. aeruginosa 2, ceftazidime to inhibitor 1:1 in combinations
Experimental: as §4

[12] = differential free energy of binding relative to compound 1, 298 K, positive = improved affinity

T1 sequence (P00811 20-377): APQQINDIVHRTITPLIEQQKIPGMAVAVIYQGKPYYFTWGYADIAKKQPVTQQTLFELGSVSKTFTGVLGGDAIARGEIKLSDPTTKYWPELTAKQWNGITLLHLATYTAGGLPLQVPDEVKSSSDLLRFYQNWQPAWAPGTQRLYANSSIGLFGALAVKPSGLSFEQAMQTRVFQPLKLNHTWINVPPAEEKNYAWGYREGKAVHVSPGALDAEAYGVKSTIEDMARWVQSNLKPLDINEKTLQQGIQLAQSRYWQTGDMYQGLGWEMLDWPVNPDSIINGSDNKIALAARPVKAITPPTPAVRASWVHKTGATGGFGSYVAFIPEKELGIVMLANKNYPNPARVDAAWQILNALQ

In the case of `O=C(Cc1cccs1)N[C@H](B(O)O)c1cccc(C(=O)O)c1` [Compound 16, (1R)-1-(2-thienylacetylamino)-1-(3-carboxyphenyl)methylboronic acid], the IC50 [1] is reported as 0.0026 µM, the Ki [1] is reported as 0.001 µM and the “type of inhibition of AmpC” value [1] is reported as “time-dependent inhibition”. The Ki ([1]; 50 mM Tris pH 7.0, 200 μM nitrocefin, 5 min incubation) was 0.001 µM, the “fold more potent than the lead compound lacking the m.carboxyphenyl side chain” value [1] was 300 fold and the “ΔΔG from 1” value [1, 12] was 5.82 kcal/mol. The “improvement of binding energy by addition of the m.carboxyphenyl side chain” value ([1]; versus lead lacking the side chain) was 3.4 kcal/mol, the IC50 [2] was 500 µM and the “selectivity for AmpC over elastase” value [2] was 190,000 fold. The IC50 [3] was 150 µM, the “selectivity for AmpC over α-chymotrypsin” value [3] was 57,000 fold and the IC50 [4] was greater than 1000 µM. The synergy with ceftazidime [5] was “showed synergy”, the Ki [6] was 0.017 µM and the “reduction of affinity by the N289A substitution versus the wild-type enzyme” value [6] was 17 fold. The “ΔΔΔG, hydrogen bond energy between Asn289 and the inhibitor group” value ([6]; thermodynamic cycle, WT AmpC / N289A, mutant ligand 21) was 1.7 kcal/mol.
For `CC(C)(O/N=C(\C(=O)NCB(O)O)c1csc(N)n1)C(=O)O` [Compound 3, reference compound], the “ΔΔG from 1 (kcal/mol)” value [1, 12] is given as 4.04 — kcal/mol and the Ki [7] is given as 0.02 µM.
For `CC1(C)C2CC3OB([C@@H](NC(=O)Cc4cccs4)c4cccc(C=O)c4)O[C@@]3(C)C1C2` (single isomer, unassigned; (+)) [Compound 26], the Ki [1] was 0.015 µM and the Ki [6] was 0.018 µM.
Compound `O=C(Cc1cccs1)N[C@H](B(O)O)c1ccccc1` [Compound 21, (1R)-1-(2-thienylacetylamino)-1-phenylmethylboronic acid] has a melting point of 90 to 100 °C, an IC50 [1] of 0.09 µM and a Ki [1] of 0.035 µM. For the same compound, the “ΔΔG from 1” value [1, 12] was 3.71 kcal/mol, the “fold less active than compound 16” value ([1]; wild-type AmpC) was 35 fold and the IC50 [2] was 128 µM. The “selectivity for AmpC over elastase” value [2] was 1,400 fold, the IC50 [3] was 6 µM and the “selectivity for AmpC over α-chymotrypsin” value [3] was 60 fold. For the same compound, the IC50 [4] was greater than 1000 µM, the synergy with ceftazidime [5] was “showed synergy” and the Ki [8] was 0.012 µM. The “ΔΔΔG, interaction between the inhibitor phenyl ring and Leu119” value ([8]; thermodynamic cycle, WT AmpC / L119A, L=21, L′=4, negative = unfavorable) was -1.4 kcal/mol, the Ki [9] was 0.521 µM and the “ΔΔΔG, interaction between the inhibitor phenyl ring and Leu293” value ([9]; thermodynamic cycle, WT AmpC / L293A, L=21, L′=4, negative = unfavorable) was -0.5 kcal/mol. For the same compound, the “reduction of affinity by the L293→Ala substitution” value ([9]; versus wild-type AmpC) was 1.6 kcal/mol, the Ki [6] was 0.037 µM and the “fall in affinity relative to the affinity of 16 for the mutant” value ([6]; AmpC N289A) was 2 fold.
`O=C(Cc1cccs1)N[C@@H]1C(=O)N2C(C(=O)O)=C(/C=C/c3ccc([N+](=O)[O-])cc3[N+](=O)[O-])CS[C@H]12` [nitrocefin, reference compound] showed a Km ([9]; read-out: KM of nitrocefin, L293A) of 33 µM and a Km ([6]; read-out: KM of nitrocefin, N289A) of 27 µM.
For `CC(C)(O/N=C(\C(=O)N[C@@H]1C(=O)N2C(C(=O)[O-])=C(C[n+]3ccccc3)CS[C@H]12)c1csc(N)n1)C(=O)O` [CAZ, ceftazidime], the MIC [10] was 32 µg/mL and the MIC [11] was 64 µg/mL.
For `Cc1onc(-c2ccccc2Cl)c1C(=O)N[C@H](B(O)O)c1cccc(C(=O)O)c1` [Compound 17, (1R)-1-{[3-(2-Chlorophenyl)-5-methyl-isoxazole-4-carbonyl]-amino}-1-(3-carboxyphenyl)methylboronic acid], the melting point was 180 to 190 °C, the Ki [1] was 5.7 µM and the “binding energy made worse by addition of the m.carboxyphenyl group” value ([1]; 17 versus 2) was “about 2 kcal/mol”. For the same compound, the “fold less potent (higher Ki) than compound 2 lacking the m.carboxyphenyl group” value ([1]; 17 versus 2) was 40 fold and the “ΔΔG from 1” value [1, 12] was 0.70 kcal/mol.
In the case of `CC(=O)NCB(O)O` [Compound 1, reference compound], the “ΔΔG from 1” value [1, 12] is reported as 0.00 kcal/mol.
Compound `O=C(Cc1cccs1)NCB(O)O` [Compound 4, reference compound] has a Ki [1] of 0.186 µM, a Ki [8] of 0.676 µM and a Ki [9] of 6.2 µM.
For `CC(=O)N[C@H](B(O)O)c1cccc(C(=O)O)c1` [Compound 15, (1R)-1-acetylamino-1-(3-carboxyphenyl)methylboronic acid], the Ki [1] was 0.13 µM, the “fold more potent than the lead compound lacking the m.carboxyphenyl side chain” value [1] was 150 fold and the “ΔΔG from 1” value [1, 12] was 2.95 kcal/mol.
